Results on two molecules are retold here after US20160346356A1, “USE OF RNA INTERFERENCE, FARNESOIC ACID AND RECOMBINANT PROTEIN APPROACH TO INDUCE GONAD MATURATION IN CRUSTACEAN SPECIES” (priority 2013, published 2016).

One test relates to HaVg1 gene expression. As to conditions: hepatopancreas explant, cited from earlier work.
A further test deals with gonad maturation. Put plainly: Example 2: FA injection into female shrimp, gonadosomatic index. The format is in vivo. Conditions: FA 1 μg/g of body weight, day 6. Here is the method: Farnesoic acid (FA) is known to be able to stimulate vitellogenin synthesis in crab, shrimp and lobster. Stock of FA is prepared in ultra-pure mineral oil and female shrimp will be injected with FA.
Fifty female shrimp are injected with FA through the arthropodial membrane (e.g. at 1 μg/g of body weight) 1 day after they molt. After injection, the shrimp is returned to the culture tank for culture. A group of 10 shrimps are randomly selected at a 24-hour interval. 50 μl of hemolymph sample will be taken from the shrimps for analyzing the vitellogenin level by ELISA. On day 6, all the shrimps will be sacrificed and their ovary will be weighted for estimating the gonadosomatic index (GSI), which is the ratio of ovary weight to total body weight. A control group is also setup in which the shrimps are injected with the same volume of mineral oil without any FA. Shrimps injected with FA should have a higher ovary weight to total shrimp weight than the control.

Test [1] concerns expression of vitellogenin. Conditions: red crab; cited from earlier work.

Where two headings read alike, the source gives them in different places.

Consider `CC(C)(O)CC[C@@H](O)[C@](C)(O)[C@H]1CC[C@@]2(O)C3=CC(=O)[C@@H]4C[C@@H](O)[C@@H](O)C[C@]4(C)[C@H]3CC[C@]12C` [20E, 20-hydroxyecdysone], for which the “increase in HaVg1 gene expression” value with HaVg1 gene expression (0.7 μM 20E) is recorded as 2.2 fold.
In the case of `CC(C)=CCCC(C)=CCCC(C)=CC(=O)O` [FA, farnesoic acid], in the test on gonad maturation, the “ovary weight to total shrimp weight (GSI) versus control” value is reported as “higher”. Further, the “increase in HaVg1 gene expression” value with HaVg1 gene expression (4.2 μM FA) is reported as 2 fold. For the same molecule, the expression of vitellogenin entry in test [1] is recorded as “stimulate”.
